The source of these data is PubChem BioAssay (NCI).

Holding throughout (assay): DTP human tumour cell line panel, 48 h
In assay [1] the test system is IGROV1 ovarian.
For assay [2], the system named is HT29 colon.
Assay [3] concerns CAKI-1 renal.
Assay [4] deals with ACHN renal.
Assay [5] has as its system CCRF-CEM leukemia.
The subject of assay [6] is SK-MEL-5 melanoma.
The test system of assay [7] is NCI/ADR-RES ovarian.
Assay [8] deals with MCF7 breast.
Assay [9] has as its system PC-3 prostate.
The test system of assay [10] is HS 578T breast.

Where “and” joins values, the source holds several entries; their conditions need not be identical. Identical values can stand only once.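 Following 48 hours of exposure in 96-well plates, responses at five concentrations were used to interpolate endpoints linearly. At the GI50, growth is halved. Definition used: TGI = concentration required for complete inhibition of growth.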 Bounds are passed on as bounds.

Usually TGI stands for the concentration at which net growth stops. A higher TGI goes with less potent growth arrest. In the case of `Cc1[nH]c2ccccc2c1C1Cc2ccccc2N1C(=O)/C=C\C(=O)O` (configuration not stated), the TGI in assay [1] is greater than 100 µM; in assay [2] it was greater than 100 µM; in [3] it was greater than 100 µM; in [4] it was greater than 100 µM; in assay [5], 94.1 µM; in assay [6] it was 88.3 µM.

Consider `COC(=O)C1C(C(=O)OC)C2(OC)c3ccccc3-c3ccccc3C12` (configuration not stated), for which the TGI in assay [1] is greater than 100 µM; in assay [2], greater than 100 µM; in assay [3] it was greater than 100 µM; in [4], greater than 100 µM; in [5], 64.3 µM; in assay [6], 78.7 µM.

In the case of `CCCCOC(=O)NC(=O)c1cn(CCCOC(=O)CCCCCCCCC(=O)OCCCn2cc(C(=O)NC(=O)OCCCC)c(=O)[nH]c2=O)c(=O)[nH]c1=O`, the concentration for total growth inhibition (TGI) in [1], in assay [2], in assay [4], in assay [5] and in [6] was greater than 100 µM throughout.

`COc1ccc(NC(=O)C(=O)C(C(=O)c2ccccc2)C2OC(=O)c3ccccc32)c([N+](=O)[O-])c1` (configuration not stated): the TGI in assay [1], in [2], in [3], in assay [4], in assay [5] and in assay [6] was greater than 100 µM each time.

On to `CCCCCCCCC[C@@H]1CC(=O)OCC2OC(O[C@H](CCCCCCCCC)CC(=O)OCC3OC(O[C@H](CCCCCCCCC)CC(=O)OCC4OC(O1)C(O)C(O)C4O)C(O)C(O)C3O)C(O)C(O)C2O` (some centres not stated), for which the TGI in [1] is 28.2 µM; in [2], 24.3 µM; in [3], 14.9 µM; in assay [4] it was 26.1 µM; in assay [5], 19.4 µM; in assay [6] it was 25.5 µM.

On to `COc1cc(/C=C(\C#N)C(=O)c2ccccc2)ccc1OCc1ccccc1`, for which the TGI in assay [1], in assay [3], in assay [4], in assay [5] and in [6] was greater than 100 µM each time.

Consider `CCNC(=O)CCN(C(=O)O)S(=O)(=O)c1ccc(NC(=O)c2ccccc2)cc1`, for which the TGI in assay [1], in assay [2], in assay [3], in assay [4], in assay [5] and in assay [6] was greater than 100 µM throughout.

In the case of `COc1ccc(-c2onc(-c3ccc([N+](=O)[O-])cc3)c2C2=NCCN2)cc1`, the TGI in [1], in [2], in assay [3], in assay [4], in assay [5] and in assay [6] was greater than 100 µM throughout.

For the compound `Cn1ccnc1CC(C)(O)c1ccccc1` (configuration not stated), the TGI in [1], in [2], in assay [7], in [3], in [4] and in assay [8] was greater than 100 µM throughout. Besides, the TGI in [6], in [9] and in assay [10] was greater than 100 µM each time.

On to `O=[N+]([O-])c1cccc(/C=N\NS(=O)(=O)c2ccc(Cl)cc2)c1O`, for which the TGI in assay [1], in assay [2], in assay [3], in assay [4], in [5] and in [6] was greater than 100 µM in each case.

For `Nc1ccc(N(S(=O)(=O)c2ccccc2)S(=O)(=O)c2ccccc2)c(Cl)c1`, the TGI in assay [1], in [2], in [7], in assay [3], in [4] and in assay [8] was greater than 100 µM in each case. Also, the TGI was 50.4 µM in assay [6], greater than 100 µM in [9] and greater than 100 µM in assay [10].

In general, GI50 refers to the concentration that inhibits growth by half. Turning to `Cc1c[nH]c2c(O)cc3c(c12)[C@H](CCl)CN3C(=O)c1cc2cc(NC(=O)Nc3ccc4[nH]c(C(=O)N5C[C@@H](CCl)c6c5cc(O)c5[nH]cc(C)c65)cc4c3)ccc2[nH]1`, the GI50 in assay [1] was 0.0255 µM; in assay [2], 0.00416 ng/mL; in assay [3], 0.000268 µM; in assay [4] it was 0.0841 nM; in [9], 0.023 µM; in [10], 0.0252 µM. Further, the TGI in [1] was 44 µM; in [2] it was > 100 µM and 0.00887 µg/mL; in assay [8], 21.9 µM and 0.00887 µg/mL and 8.88 µg/mL; in assay [6] it was 26.6 nM and 25.5 µM and 0.00138 µg/mL.

On to `CCCCc1c2c(nc3c1CCC/C3=C\c1ccccc1)C(=O)CCC2`, for which the TGI in assay [1] was 42.5 µM; in [2], 31.4 µM; in assay [4], 95.2 µM; in assay [5], 61.7 µM; in assay [6], 30.4 µM.

On to `C=CCC(N[C@H](CO)c1ccccc1)c1ccc2ccccc2n1` (some centres not stated), for which the GI50 in assay [1] was 45.9 µM; in assay [2] it was greater than 100 µM; in assay [7] it was greater than 100 µM; in assay [3], greater than 100 µM; in assay [4] it was greater than 100000 nM; in [5], greater than 100 µM. Besides, the figures for the GI50 in assay [9] and in assay [10] were greater than 100 µM and 22.5 µM, respectively. Moreover, the TGI in [1], in assay [2], in [7], in assay [3], in assay [4] and in assay [5] was greater than 100 µM each time. Also, the TGI in [9] and in assay [10] was greater than 100 µM in each case.

For `O=C1OC(CC(=O)c2ccc(Cl)c(Cl)c2)C(Cl)=C1Cl` (configuration not stated), the TGI is greater than 100 µM in assay [1]; greater than 100 µM in assay [2]; greater than 100 µM in assay [3]; greater than 100 µM in assay [4]; 62.5 µM in [5]; greater than 100 µM in assay [6].

Consider `NC(=O)C(=Cc1ccc(C(O)P(=O)(O)O)cc1)C(N)=O` (configuration not stated), for which the total growth inhibition concentration (TGI) in assay [1], in [2], in assay [3], in assay [4] and in assay [6] was greater than 100 µM throughout.

Regarding `NNC(=O)/C(=C/c1ccc(Cl)c(Cl)c1)NC(=O)c1ccccc1`, the concentration for total growth inhibition (TGI) in assay [1], in [2], in assay [4], in assay [5] and in assay [6] was greater than 100 µM each time.
